{
  "source": "paper PMC3094704",
  "about": "“S-Petasin, the Main Sesquiterpene of Petasites formosanus, Inhibits Phosphodiesterase Activity and Suppresses Ovalbumin-Induced Airway Hyperresponsiveness” (Evidence-based Complementary and Alternative Medicine : eCAM, 2011)",
  "key": {"[1]": {"system": "high-affinity rolipram binding sites (HARBSs) of guinea pig brain cell membranes", "assay": "Displacement of [3H]-rolipram (PDE4H determination)", "protocol": "When the above-described guinea pigs were sacrificed, the whole brains were removed and homogenized with a glass/Teflon homogenizer (Glas-Col, Terre Haute, IN, USA) in 10 volumes of cold medium (pH 6.5) containing 20 mM Bis-Tris, 2 mM benzamidine, 2 mM EDTA, 50 mM sodium chloride, 0.1 mM PMSF and 1 mM dithiothreitol. At 4°C, the homogenate was centrifuged at 170 g for 5 min to remove connective tissues and blood vessels. The suspended homogenate was then re-centrifuged at 40 000 g for 30 min to separate the cytosolic and particulate portions. The particulate portion was re-suspended in a suspension at a concentration of 400 mg/mL (wet weight/volume), after washing three times with homogenizing buffer. The particulate portion mainly consisted of cell membranes. The binding ability of S-petasin (3–300 μM) or Ro 20-1724 (1–10,000 nM), a reference drug, to high-affinity rolipram binding sites (HARBSs) of the membranes was determined by replacing 2 nM [^3H]-rolipram in a reaction buffer at 30°C for 1 h, according to the method described by previous investigators and modified by us. Briefly, the reaction buffer consisted of 50 mM Tris-HCl and 5 mM MgCl2 (pH 7.5). The total volume of the reaction mixture was 25 μL, consisting of 10 μL of particulate suspension, 10 μL of [^3H]-rolipram and 5 μL of S-petasin or Ro 20-1724. After 1 h, the reaction was terminated by moving the reaction vessel into crushed ice. Then the reaction mixture was transferred onto Whatman GF/B glass-fiber filters, which were soaked in a 0.3% polyethyleneimine solution in a mini-funnel. The reaction mixture was filtered by centrifuging at 90 g for 10 s, and the filtrate was collected into a 1.5 mL Eppendorf tube with a top adapted to the outlet of the mini-funnel. The filters were washed with 300 μL of reaction buffer three times each in the same way, and transferred into 2 mL of cocktail for radiation counting (total binding) using a β-scintillation counter (Beckman, Fullerton, CA, USA). Non-specific binding, which was defined in the presence of 10 μM Ro 20-1724, was subtracted from the total binding to yield the specific binding. The effective concentration (EC50) values of S-petasin and Ro 20-1724, at which a half of [^3H]-rolipram bound onto HARBSs of cell membranes was displaced, were defined as the PDE4H values, and these were related to any adverse effects, such as nausea, vomiting and gastric hypersecretion."}, "[2]": {"system": "OVA-sensitized and challenged BALB/c mice", "assay": "Airway hyperresponsiveness in vivo (Penh, whole-body plethysmography)", "parameters": "species or system mouse", "protocol": "(§1) Ten female BABL/c mice in each group were sensitized by an intraperitoneal (i.p.) injection of 20 μg of OVA emulsified in 2.25 mg aluminum hydroxide gel in a total volume of 100 μL on days 0 and 14. The mice were challenged via the airway by 1% OVA in saline for 30 min on Days 28, 29 and 30 by ultrasonic nebulization. Six weeks after the last of three primary OVA challenges, the mice were exposed to 1% OVA for 30 min by nebulization as a secondary challenge. AHR was assessed on Day 74 (48 h after 1% OVA provocation) in each group. […] For comparison, sham-treated mice were sensitized but challenged with saline instead of 1% OVA (non-challenged). The vehicle, a mixture of alcohol : DMSO : 30% HPβCD : saline (0.5 : 0.5 : 1 : 8 , v/v), or S-petasin was injected at a volume of 0.01 mL/g of body weight. AHR was measured in unrestrained animals by barometric plethysmography using a whole-body plethysmograph (WBP) and analyzed using software of Life Science Suite P3 Analysis Modules (Gould, LDS Test and Measurement LLC, Valley View, OH, USA). The mice were placed into the main chamber of the WBP, and the baseline enhanced pause (P enh) value was determined. Then the mice were nebulized first with phosphate-buffered saline (PBS), and subsequently with increasing doses (6.25–50 mg/mL) of MCh for 3 min for each nebulization, followed by readings of breathing parameters for 3 min after each nebulization with determination of P enh values. Twenty-four hours after the P enh determination, these mice were anesthetized with pentobarbital (50 mg/kg, i.p.), and lavaged via a tracheal tube with PBS (1 × 1.0 mL, 37°C). After lavage, blood was collected from the jugular vein and allowed to sit so that it would coagulate. The collected bronchoalveolar lavage fluid (BALF) and coagulated blood were, respectively, centrifuged at 630 g for 7 min and at 3700 g for 10 min at 4°C, respectively. After centrifugation, the supernatants of BALF and serum were stored at −20°C until the determinations of cytokines, including interleukin (IL)-2, IL-4, IL-5, tumor necrosis factor (TNF)-α and interferon (IFN)-γ by flow cytometric methods using mouse Th1/Th2 cytokine CBA kits, of total immunoglobulin E (IgE), and of total IgG2a using enzyme-linked immunosorbent assay (ELISA) kits (Pharmingen, San Diego, CA, USA) according to the respective recommendations of the manufacturer. OVA-specific IgE was measured as described previously with some modifications. Wells were coated with 100 μL of OVA (20 μg/mL) instead of the capture antibody. Levels are expressed in arbitrary units, where one arbitrary unit equals the optical density of the sample divided by the optical density of unchallenged mouse serum or BALF (standard). The pellet from BALF was re-suspended in ACK lysing buffer (1.658 g NH4Cl, 0.2 g KHCO3 and 1.44 mg EDTA in 200 mL of water) to lyse the residual erythrocytes in each sample. The number of inflammatory cells was counted using a hemocytometer (Hausser Scientific, Horsham, PA, USA). Cytospun slides were stained and differentiated in a blinded fashion by counting at least 100 cells under light microscopy."}, "[3]": {"system": "OVA-sensitized and challenged BALB/c mice", "assay": "Inflammatory cells in BALF", "type": "in vivo, mouse", "protocol": "as §1"}},
  "data": [
    {"smiles": "C=C(C)[C@@H]1C[C@@]2(C)C(=CC1=O)CC[C@@H](OC(=O)/C=C\\SC)[C@@H]2C", "note": "[S-Petasin]", "values": [
      {"measurement": "EC50", "setting": "[1]; HARBSs of guinea pig brain cell membranes", "result": "> 300", "unit": "µM"},
      {"measurement": "percentage displacement of [3H]-rolipram binding", "setting": "[1]; at the highest concentration (300 μM), 2 nM [3H]-rolipram", "result": "28.0%±5.7%"},
      {"measurement": "Penh value at the baseline", "setting": "[2]; 10 μmol/kg s.c.", "result": "3.19 ± 0.47"},
      {"measurement": "Penh value of PBS nebulization", "setting": "[2]; 10 μmol/kg s.c.", "result": "2.99 ± 0.22"},
      {"measurement": "Penh value at the baseline", "setting": "[2]; 30 μmol/kg s.c.", "result": "3.13 ± 0.32"},
      {"measurement": "Penh value of PBS nebulization", "setting": "[2]; 30 μmol/kg s.c.", "result": "3.02 ± 0.23"},
      {"measurement": "Enhancement of the Penh value induced by MCh", "setting": "[2]; 10–30 μmol/kg s.c., MCh at 50 mg/mL", "result": "dose-dependently and significantly attenuated"},
      {"measurement": "Increase in lymphocytes in BALF", "setting": "[3]; 30 μmol/kg s.c., exception at 10 μmol/kg", "result": "significantly suppressed"},
      {"measurement": "Increase in eosinophils in BALF", "setting": "[3]; 10–30 μmol/kg s.c.", "result": "significantly suppressed"},
      {"measurement": "Increase in neutrophils in BALF", "setting": "[3]; 10–30 μmol/kg s.c.", "result": "significantly suppressed"},
      {"measurement": "Increase in total inflammatory cells in BALF", "setting": "[3]; 10–30 μmol/kg s.c.", "result": "significantly suppressed"},
      {"measurement": "Macrophages in BALF", "setting": "[3]; 10–30 μmol/kg s.c.", "result": "not affected"}
    ]}
  ]
}
